Three molecules from ChEMBL document CHEMBL1201862, “PubChem BioAssay data set” (2004) can be followed below.

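96-well plates; 48 h exposure; 5 concentrations. Endpoints by linear interpolation between flanking doses. Not reached: highest tested concentration assigned. Abbreviation: GI50, concentration required for 50% inhibition of growth.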 Activity calls are given as the source filed them. Rule as the data show it: active = GI50 up to about 1.1 µM and inactive = higher. Some results are limits rather than exact numbers.

Test systems include NCI-H226; HCT-15; HOP-92; EKVX; RPMI-8226; HT-29; U-251; SK-MEL-5; SK-OV-3; IGROV-1; SF-295; SNB-19; UACC-257; SK-MEL-2; Malme-3M; OVCAR-4; K562; SF-539; NCI-H460; NCI/ADR-RES.
What all share (assay): NCI-60 cell line screen, 48 h

For the molecule `Fc1ccc(C(OCCN2CC3CCC(C2)N3CCCc2ccccc2)c2ccc(F)cc2)cc1`, the GI50 in the assay on NCI-H226 is 3.94 µM (inactive); in the assay on HCT-15, 3.42 µM; with HOP-92, 8.05 µM (inactive); with EKVX it was 4.06 µM (inactive); in the assay with RPMI-8226, 2.15 µM (inactive); in the assay on HT-29 it was 3.29 µM (inactive). The GI50 in the assay with U-251 is 4.54 µM (inactive); in the assay with SK-MEL-5, 1.82 µM (inactive); with SK-OV-3, 10.2 µM (inactive); in the assay with IGROV-1, 8.71 µM (inactive); in the assay with SF-295, 3.15 µM (inactive); in the assay on SNB-19, 10.1 µM (inactive). For the same molecule, the GI50 in the assay with UACC-257 is 3.33 µM (inactive); in the assay on SK-MEL-2, 2.55 µM (inactive); with Malme-3M, 3.32 µM (inactive); with OVCAR-4 it was 3.94 µM (inactive); with K562 it was 2 µM (inactive); with SF-539 it was 1.99 µM (inactive). For the same molecule, the GI50 was 3.01 µM (inactive) in the assay with NCI-H460 and 3.89 µM (inactive) with NCI/ADR-RES.

For `CCCCCCC(=O)OC[n+]1cccc(-c2c(COC(=O)NC(C)C)c(COC(=O)NC(C)C)c3n2CCC3)c1`, the GI50 in the assay on NCI-H226 was 60.7 µM (inactive); in the assay on HCT-15, 42.6 µM; in the assay on HOP-92, 24.9 µM (inactive); with EKVX, > 100 µM (inactive); with RPMI-8226, 32.1 µM (inactive); in the assay with HT-29, 40.6 µM (inactive). Also, the GI50 with U-251 is 29.4 µM (inactive); in the assay with SK-MEL-5 it was 32.4 µM (inactive); with SK-OV-3 it was 40.6 µM (inactive); with IGROV-1, > 41.8 µM (inactive); in the assay with SF-295, > 62.2 µM (inactive); in the assay with SNB-19 it was 90.6 µM (inactive). Besides, the GI50 in the assay with UACC-257 was 64.1 µM (inactive); in the assay on SK-MEL-2 it was 26.7 µM (inactive); in the assay on Malme-3M, 38.9 µM (inactive); in the assay on OVCAR-4, 33.7 µM (inactive); in the assay with K562 it was 31.6 µM (inactive); in the assay on SF-539, 32.1 µM (inactive). Also, the GI50 in the assay with NCI-H460 is 14.5 µM (inactive); in the assay with NCI/ADR-RES, 32.4 µM (inactive).

`CC(C)N1CCN(c2ccc(OCC3COC(Cn4cncn4)(c4ccc(Cl)cc4Cl)O3)cc2)CC1` (stereo not given) [TERCONAZOLE]: the GI50 with NCI-H226 is 15 µM (inactive); in the assay with HCT-15, 9.53 µM; with HOP-92, 13.6 µM (inactive); in the assay on EKVX it was 15.1 µM (inactive); with RPMI-8226 it was 10.5 µM (inactive); in the assay on HT-29, 3.62 µM (inactive). Besides, the GI50 is 12.9 µM (inactive) with U-251; 2.18 µM (inactive) in the assay on SK-MEL-5; 13.5 µM (inactive) in the assay with SK-OV-3; 16 µM (inactive) in the assay with IGROV-1; 12.8 µM (inactive) in the assay with SF-295; > 42.1 µM (inactive) in the assay on SNB-19. For the same molecule, the GI50 in the assay with UACC-257 was 1.89 µM (inactive); in the assay with SK-MEL-2 it was 14.7 µM (inactive); in the assay on Malme-3M, 7.85 µM (inactive); with OVCAR-4, 17.2 µM (inactive); in the assay on K562, 3.47 µM (inactive); in the assay on SF-539 it was 13.3 µM (inactive). In addition, the GI50 with NCI-H460 was 14.6 µM (inactive); with NCI/ADR-RES, 16.7 µM (inactive).
